Measurements: patent US11000033B2, “Ketone or oxime compound, and herbicide” (NISSAN CHEMICAL CORPORATION, priority 2014, dated 2021)

Tests used:
Assay type in all cases: in vivo
corn [1] = assay: Test Example 5: effect on crop by foliage application, plastic box (symbol c); settings: 320 g/ha, 3 weeks after application
Outline: (§1)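 Box culture: sterile diluvial soil, seeds spot-sown, ~1.5 cm cover, raised under glass at 25–30° C.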

Galium spurium = assay: Test Example 4: herbicidal effect by soil treatment (symbol Q)
Outline: (§2)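 Seeds were sown in sterilized diluvial soil, covered with about 1.5 cm of soil, and the soil surface was sprayed with a water-diluted emulsion of the compound at a predetermined rate. Plants grew in a greenhouse at 25° C. to 30° C.; effects were scored visually 3 weeks after application.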

Veronica persica [2] = assay: Test Example 4: herbicidal effect by soil treatment (symbol R)
Outline: as §2

Veronica persica [3] = assay: Test Example 5: herbicidal effect by foliage application, plastic box (symbol R); settings: 320 g/ha, 3 weeks after application
Outline: (§3)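 Greenhouse foliar test: seedlings at 14 days, grown 25° C. to 30° C. in sterilized diluvial soil; compound applied as an aqueous dilution of an emulsion; response read 3 weeks after spraying.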

Digitaria ciliaris = assay: Test Example 4: herbicidal effect by soil treatment (symbol F)
Outline: as §2

beet = assay: Test Example 5: effect on crop by foliage application, plastic box (symbol f); settings: 320 g/ha, 3 weeks after application
Outline: as §1

wheat = assay: Test Example 5: effect on crop by foliage application, plastic box (symbol e); settings: 320 g/ha, 3 weeks after application
Outline: as §1

Alopecurus myosuroides [4] = assay: Test Example 5: herbicidal effect by foliage application, plastic box (symbol J); settings: 320 g/ha, 3 weeks after application
Outline: as §3

Scirpus juncoides = assay: Test Example 2: herbicidal activity, application during weed generation in submerged conditions (symbol B); settings: Table 23; application herbicide amount 320 g/ha; grade 0-5 by criteria of Test Example 1
Outline: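 Steps: fill pots with alluvial soil; add water to 4 cm depth; co-sow the three weeds; grow at 25° C. to 30° C. under glass; at 1–2 leaves, dose the floodwater with diluted emulsion; rate damage visually after 3 weeks.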

corn [5] = assay: Test Example 4: effect on crop by soil treatment (symbol c); settings: for c: corn, effect grade on crop: 320 g/ha; for c: corn, effect on crop grade: application herbicide amount 320 g/ha
Outline: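 Soil-treatment setup: crop and weed seeds were spot-sown into sterilized diluvial soil, then buried beneath approximately 1.5 cm of it, and the boxes were housed in a 25–30° C. greenhouse.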

Alopecurus myosuroides [6] = assay: Test Example 4: herbicidal effect by soil treatment (symbol J)
Outline: as §2

rapeseed = assay: Test Example 4: effect on crop by soil treatment (symbol g); settings: for g: rapeseed, effect grade on crop: 320 g/ha; for g: rapeseed, effect on crop grade: application herbicide amount 320 g/ha
Outline: (§4)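 Sterilized diluvial soil, spot sowing, ~1.5 cm soil cover; greenhouse 25–30° C.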

transplanted rice plant = assay: Test Example 1: effect on crop, application before weed generation in submerged conditions (symbol a); settings: application herbicide amount 320 g/ha
Outline: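 Rice at 2.5 leaf stage transplanted into submerged soil (4 cm depth) sown with three weed species; herbicide applied before weed emergence.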

Lolium multiflorum Lam. = assay: Test Example 5: herbicidal effect by foliage application, plastic box (symbol K); settings: 320 g/ha, 3 weeks after application
Outline: as §3

rice = assay: Test Example 4: effect on crop by soil treatment (symbol b); settings: for b: directly sowed rice plant, effect grade on crop: 320 g/ha; for b: directly sowed rice plant, effect on crop grade: application herbicide amount 320 g/ha
Outline: as §4

[7] = application herbicide amount 320 g/ha

Structure (SMILES): CON=C(C)CC1CC(OC(=O)OCc2ccccc2)=C(c2c(C)cc(C)cc2C)C1=O (stereo not drawn) [1-145]
- c: corn, effect on crop (criteria 0-5) (corn [1]): 5 (Herbicidal ratio of 90% or more (almost completely withered))
- Q: Galium spurium, herbicidal effect grade (Galium spurium; 320 g/ha): 0 (Herbicidal ratio of 5% or lower (almost no effect))
- R: Veronica persica, herbicidal effect grade (Veronica persica [2]; 320 g/ha): 3 (Herbicidal ratio of 40% or higher and lower than 70%)
- R: Veronica persica, herbicidal effect (criteria 0-5) (Veronica persica [3]): 3 (Herbicidal ratio of 40% or higher and lower than 70%)
- F: Digitaria ciliaris, herbicidal effect grade (Digitaria ciliaris; 320 g/ha): 5 (Herbicidal ratio of 90% or more (almost completely withered))
- f: beet, effect on crop (criteria 0-5) (beet): 2 (Herbicidal ratio of 20% or higher and lower than 40%)
- e: wheat, effect on crop (criteria 0-5) (wheat): 5 (Herbicidal ratio of 90% or more (almost completely withered))
- J: Alopecurus myosuroides, herbicidal effect (criteria 0-5) (Alopecurus myosuroides [4]): 5 (Herbicidal ratio of 90% or more (almost completely withered))
- Herbicidal effect grade, B: Scirpus juncoides (Scirpus juncoides): 5 (Herbicidal ratio of 90% or more (almost completely withered))
- c: corn, effect grade on crop (corn [5]): 5 (Herbicidal ratio of 90% or more (almost completely withered))
- J: Alopecurus myosuroides, herbicidal effect grade (Alopecurus myosuroides [6]; 320 g/ha): 5 (Herbicidal ratio of 90% or more (almost completely withered))
- g: rapeseed, effect grade on crop (rapeseed): 4 (Herbicidal ratio of 70% or higher and lower than 90%)
- Effect grade on crop, a: transplanted rice plant (transplanted rice plant): 5 (Herbicidal ratio of 90% or more (almost completely withered))
- K: Lolium multiflorum Lam., herbicidal effect (criteria 0-5) (Lolium multiflorum Lam.): 5 (Herbicidal ratio of 90% or more (almost completely withered))
- b: directly sowed rice plant, effect grade on crop (rice): 5 (Herbicidal ratio of 90% or more (almost completely withered))

Structure (SMILES): CON=C(C)CC1CC(OC(=O)c2ccc(S(C)(=O)=O)c(C(=O)OC)c2Cl)=C(c2c(C)cc(C)cc2C)C1=O (stereo not drawn) [1-162]
- c: corn, effect on crop grade (corn [1]): 4 (Herbicidal ratio of 70% or higher and lower than 90%)
- Q: Galium spurium, herbicidal effect grade (Galium spurium; 320 g/ha): 0 (Herbicidal ratio of 5% or lower (almost no effect))
- R: Veronica persica, herbicidal effect grade (Veronica persica [2]; 320 g/ha): 0 (Herbicidal ratio of 5% or lower (almost no effect))
- R: Veronica persica, herbicidal effect grade (Veronica persica [3]): 3 (Herbicidal ratio of 40% or higher and lower than 70%)
- F: Digitaria ciliaris, herbicidal effect grade (Digitaria ciliaris; 320 g/ha): 5 (Herbicidal ratio of 90% or more (almost completely withered))
- f: beet, effect on crop grade (beet): 3 (Herbicidal ratio of 40% or higher and lower than 70%)
- e: wheat, effect on crop grade (wheat): 5 (Herbicidal ratio of 90% or more (almost completely withered))
- J: Alopecurus myosuroides, herbicidal effect grade (Alopecurus myosuroides [4]): 5 (Herbicidal ratio of 90% or more (almost completely withered))
- Herbicidal effect grade, B: Scirpus juncoides (Scirpus juncoides): 1 (Herbicidal ratio of 5% or higher and lower than 20%)
- c: corn, effect grade on crop (corn [5]): 2 (Herbicidal ratio of 20% or higher and lower than 40%)
- J: Alopecurus myosuroides, herbicidal effect grade (Alopecurus myosuroides [6]; 320 g/ha): 5 (Herbicidal ratio of 90% or more (almost completely withered))
- g: rapeseed, effect grade on crop (rapeseed): 4 (Herbicidal ratio of 70% or higher and lower than 90%)
- Effect grade on crop, a: transplanted rice plant (transplanted rice plant): 5 (Herbicidal ratio of 90% or more (almost completely withered))
- K: Lolium multiflorum Lam., herbicidal effect grade (Lolium multiflorum Lam.): 5 (Herbicidal ratio of 90% or more (almost completely withered))
- b: directly sowed rice plant, effect grade on crop (rice): 5 (Herbicidal ratio of 90% or more (almost completely withered))

Structure (SMILES): CON=C(C)CC1CC(O)=C(c2c(C)cc(C)cc2OC)C1=O (stereo not drawn) [6-037, 3-hydroxy-2-(2-methoxy-4,6-dimethylphenyl)-5-{2-(methoxyimino)propyl}cyclopent-2-enone]
- c: corn, effect on crop grade (corn [1]): 5 (Herbicidal ratio of 90% or more (almost completely withered))
- Q: Galium spurium, herbicidal effect grade (Galium spurium; [7]): 0 (Herbicidal ratio of 5% or lower (almost no effect))
- R: Veronica persica, herbicidal effect grade (Veronica persica [2]; [7]): 1 (Herbicidal ratio of 5% or higher and lower than 20%)
- R: Veronica persica, herbicidal effect grade (Veronica persica [3]): 3 (Herbicidal ratio of 40% or higher and lower than 70%)
- F: Digitaria ciliaris, herbicidal effect grade (Digitaria ciliaris; [7]): 5 (Herbicidal ratio of 90% or more (almost completely withered))
- f: beet, effect on crop grade (beet): 3 (Herbicidal ratio of 40% or higher and lower than 70%)
- e: wheat, effect on crop grade (wheat): 5 (Herbicidal ratio of 90% or more (almost completely withered))
- J: Alopecurus myosuroides, herbicidal effect grade (Alopecurus myosuroides [4]): 5 (Herbicidal ratio of 90% or more (almost completely withered))
- Herbicidal effect grade, B: Scirpus juncoides (Scirpus juncoides): 4 (Herbicidal ratio of 70% or higher and lower than 90%)
- c: corn, effect on crop grade (corn [5]): 5 (Herbicidal ratio of 90% or more (almost completely withered))
- J: Alopecurus myosuroides, herbicidal effect grade (Alopecurus myosuroides [6]; [7]): 5 (Herbicidal ratio of 90% or more (almost completely withered))
- g: rapeseed, effect on crop grade (rapeseed): 3 (Herbicidal ratio of 40% or higher and lower than 70%)
- Effect grade on crop, a: transplanted rice plant (transplanted rice plant): 5 (Herbicidal ratio of 90% or more (almost completely withered))
- K: Lolium multiflorum Lam., herbicidal effect grade (Lolium multiflorum Lam.): 5 (Herbicidal ratio of 90% or more (almost completely withered))
- b: directly sowed rice plant, effect on crop grade (rice): 5 (Herbicidal ratio of 90% or more (almost completely withered))

Structure (SMILES): Cc1cc(C)c(C2=C(O)CC(CC(=O)c3ccc(F)cc3)C2=O)c(C)c1 (stereo not drawn) [2-032]
- c: corn, effect on crop grade (corn [1]): 1 (Herbicidal ratio of 5% or higher and lower than 20%)
- Q: Galium spurium, herbicidal effect grade (Galium spurium; [7]): 0 (Herbicidal ratio of 5% or lower (almost no effect))
- R: Veronica persica, herbicidal effect grade (Veronica persica [2]; [7]): 0 (Herbicidal ratio of 5% or lower (almost no effect))
- R: Veronica persica, herbicidal effect grade (Veronica persica [3]): 0 (Herbicidal ratio of 5% or lower (almost no effect))
- F: Digitaria ciliaris, herbicidal effect grade (Digitaria ciliaris; [7]): 4 (Herbicidal ratio of 70% or higher and lower than 90%)
- f: beet, effect on crop grade (beet): 0 (Herbicidal ratio of 5% or lower (almost no effect))
- e: wheat, effect on crop grade (wheat): 1 (Herbicidal ratio of 5% or higher and lower than 20%)
- J: Alopecurus myosuroides, herbicidal effect grade (Alopecurus myosuroides [4]): 4 (Herbicidal ratio of 70% or higher and lower than 90%)
- Herbicidal effect grade, B: Scirpus juncoides (Scirpus juncoides): 1 (Herbicidal ratio of 5% or higher and lower than 20%)
- c: corn, effect on crop grade (corn [5]): 1 (Herbicidal ratio of 5% or higher and lower than 20%)
- J: Alopecurus myosuroides, herbicidal effect grade (Alopecurus myosuroides [6]; [7]): 5 (Herbicidal ratio of 90% or more (almost completely withered))
- g: rapeseed, effect on crop grade (rapeseed): 1 (Herbicidal ratio of 5% or higher and lower than 20%)
- Effect grade on crop, a: transplanted rice plant (transplanted rice plant): 5 (Herbicidal ratio of 90% or more (almost completely withered))
- K: Lolium multiflorum Lam., herbicidal effect grade (Lolium multiflorum Lam.): 5 (Herbicidal ratio of 90% or more (almost completely withered))
- b: directly sowed rice plant, effect on crop grade (rice): 5 (Herbicidal ratio of 90% or more (almost completely withered))

Structure (SMILES): CC(=O)C(C(C)=O)C1CC(O)=C(c2c(C)cc(C)cc2C)C1=O (stereo not drawn) [2-002]
- c: corn, effect on crop grade (corn [1]): 0 (Herbicidal ratio of 5% or lower (almost no effect))
- Q: Galium spurium, herbicidal effect grade (Galium spurium; 320 g/ha): 0 (Herbicidal ratio of 5% or lower (almost no effect))
- R: Veronica persica, herbicidal effect grade (Veronica persica [2]; 320 g/ha): 0 (Herbicidal ratio of 5% or lower (almost no effect))
- R: Veronica persica, herbicidal effect grade (Veronica persica [3]): 1 (Herbicidal ratio of 5% or higher and lower than 20%)
- F: Digitaria ciliaris, herbicidal effect grade (Digitaria ciliaris; 320 g/ha): 0 (Herbicidal ratio of 5% or lower (almost no effect))
- f: beet, effect on crop grade (beet): 0 (Herbicidal ratio of 5% or lower (almost no effect))
- e: wheat, effect on crop grade (wheat): 0 (Herbicidal ratio of 5% or lower (almost no effect))
- J: Alopecurus myosuroides, herbicidal effect grade (Alopecurus myosuroides [4]): 4 (Herbicidal ratio of 70% or higher and lower than 90%)
- Herbicidal effect grade, B: Scirpus juncoides (Scirpus juncoides): 0 (Herbicidal ratio of 5% or lower (almost no effect))
- c: corn, effect grade on crop (corn [5]): 0 (Herbicidal ratio of 5% or lower (almost no effect))
- J: Alopecurus myosuroides, herbicidal effect grade (Alopecurus myosuroides [6]; 320 g/ha): 0 (Herbicidal ratio of 5% or lower (almost no effect))
- g: rapeseed, effect grade on crop (rapeseed): 0 (Herbicidal ratio of 5% or lower (almost no effect))
- Effect grade on crop, a: transplanted rice plant (transplanted rice plant): 0 (Herbicidal ratio of 5% or lower (almost no effect))
- K: Lolium multiflorum Lam., herbicidal effect grade (Lolium multiflorum Lam.): 5 (Herbicidal ratio of 90% or more (almost completely withered))
- b: directly sowed rice plant, effect grade on crop (rice): 1 (Herbicidal ratio of 5% or higher and lower than 20%)
